Earlier results as cited in patent US20050287230A1, “Method of producing ginsenoside 20 (R)-Rh2 and composition of matter thereof” (priority 2004, published 2005).
Read-outs that look alike come from different tables or passages of the source.

Legend:
[1] = Stomach irrigation with 2 g/kg
[2] = test system: J744 macrophage
[3] = subcutaneous injection 10 mg/kg
[4] = test system: HL60
[5] = test system: LAK cells; conditions: tumor patient
[6] = test system: Morris liver cancer, human cervical cancer, B16 malignant melanoma and Hela cells
[7] = test system: HRA cells; conditions: dosage-dependent
[8] = molecular target: rhTNF-a (Homo sapiens, UniProt P01375); conditions: external experiment
Sequence of rhTNF-a (P01375 77-233 limits assumed): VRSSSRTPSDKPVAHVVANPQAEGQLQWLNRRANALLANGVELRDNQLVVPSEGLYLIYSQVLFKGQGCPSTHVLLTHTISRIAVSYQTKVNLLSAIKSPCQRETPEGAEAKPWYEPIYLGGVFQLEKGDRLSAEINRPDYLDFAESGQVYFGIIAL

[9] = test system: B16 melanoma cells
[10] = mouse, orally taken
[11] = test system: sarcoma 180; conditions: 5 mg/kg dosage

Compound: CC(C)=CC[C@@H](O)C1=CC(=O)c2c(O)ccc(O)c2C1=O [Shikonin]
- solubility in water: insoluble
- death [1]: no dead mouse

Compound: C[C@H]1[C@H](C)CC[C@]2(C(=O)O)CC[C@]3(C)C(=CC[C@@H]4[C@@]5(C)CC[C@H](O)C(C)(C)[C@@H]5CC[C@]43C)[C@H]12 [Ursolic acid]
- solubility in water: insoluble
- reversal of the inhibition function of MΦ ([2]; 50 μg/ml): partially deteriorates
- reversal of the inhibition function of MΦ ([2]; 100 μg/ml): totally deteriorate
- serum gorge invert ammonia enzyme [3]: can reduce

Compound: CC(C)=CCC[C@@](C)(O)[C@H]1CC[C@]2(C)[C@@H]1[C@H](O)C[C@@H]1[C@@]3(C)CC[C@H](O)C(C)(C)[C@@H]3[C@@H](O[C@@H]3O[C@H](CO)[C@@H](O)[C@H](O)[C@H]3O)C[C@]12C [ginsenoside 20(R)-Rh1]
- inhibition of HL60 tumor strain [4]: inhibit the human promyelcytic leukemia HL60 tumor strain significantly

Compound: CC(C)=CCC[C@](C)(O[C@@H]1O[C@H](CO)[C@@H](O)[C@H](O)[C@H]1O)[C@H]1CC[C@]2(C)[C@@H]1[C@H](O)C[C@@H]1[C@@]3(C)CC[C@H](O)C(C)(C)[C@@H]3[C@@H](O[C@@H]3O[C@H](CO)[C@@H](O)[C@H](O)[C@H]3O[C@@H]3O[C@@H](C)[C@H](O)[C@@H](O)[C@H]3O)C[C@]12C [ginsenoside Re]
- level above which effect upon LAK activity appears [5]: > 5 µg/mL

Compound: CC(C)=CCC[C@](C)(O)[C@H]1CC[C@]2(C)[C@@H]1[C@H](O)C[C@@H]1[C@@]3(C)CC[C@H](O[C@@H]4O[C@H](CO)[C@@H](O)[C@H](O)[C@H]4O)C(C)(C)[C@@H]3CC[C@]12C [ginsenoside Rh2, ginseng dialcohol-3-O-β-D-glucopyranoside]
- inhibition of HL60 tumor strain [4]: inhibit the human promyelcytic leukemia HL60 tumor strain significantly
- inhibition of HL60 tumor strain ([4]; listed as ginsenoside-Rh2): significant effect
- inhibition effect on the proliferation ([6]; 2-10 μg/ml in culture solution): different degrees of inhibition effect
- inhibition on the proliferation function ([6]; external experiment): outstanding inhibition
- effective range for inhibition of proliferation [7]: 10˜100 μmol/L

Compound: CC(C)=CCC[C@](C)(O[C@@H]1O[C@H](CO[C@@H]2OC[C@H](O[C@@H]3OC[C@@H](O)[C@H](O)[C@H]3O)[C@H](O)[C@H]2O)[C@@H](O)[C@H](O)[C@H]1O)[C@H]1CC[C@]2(C)[C@@H]1[C@H](O)C[C@@H]1[C@@]3(C)CC[C@H](O[C@@H]4O[C@H](CO)[C@@H](O)[C@H](O)[C@H]4O[C@@H]4O[C@H](CO)[C@@H](O)[C@H](O)[C@H]4O)C(C)(C)[C@@H]3CC[C@]12C [ginsenoside-Ra1]
- increase of rhTNF-a activity [8]: 134 times

Compound: CC(C)=CCC[C@](C)(O)[C@H]1CC[C@]2(C)[C@@H]1[C@H](O)C[C@@H]1[C@@]3(C)CC[C@H](O)C(C)(C)[C@@H]3[C@@H](O[C@@H]3O[C@H](CO)[C@@H](O)[C@H](O)[C@H]3O)C[C@]12C [ginsenoside-Rh1]
- concentration that completely inhibits the proliferation [9]: above 8.0 μg/ml

Compound: Lentinan
- acute toxicity LD50 [10]: > 1250 mg/kg
- inhibition rate of anti-tumor [11]: 97.5%
- solubility in water: almost indissoluble
